Laboratory results published in patent publication US7829563B2, “Aminoamides as orexin antagonists” (Hoffmann-La Roche Inc., priority 2007, dated 2010).

Target: T1, human orexin-2 (hOX2) receptors (Homo sapiens, UniProt O43614)
T1 construct: expressed in transfected cells
T1 sequence (O43614 1-444): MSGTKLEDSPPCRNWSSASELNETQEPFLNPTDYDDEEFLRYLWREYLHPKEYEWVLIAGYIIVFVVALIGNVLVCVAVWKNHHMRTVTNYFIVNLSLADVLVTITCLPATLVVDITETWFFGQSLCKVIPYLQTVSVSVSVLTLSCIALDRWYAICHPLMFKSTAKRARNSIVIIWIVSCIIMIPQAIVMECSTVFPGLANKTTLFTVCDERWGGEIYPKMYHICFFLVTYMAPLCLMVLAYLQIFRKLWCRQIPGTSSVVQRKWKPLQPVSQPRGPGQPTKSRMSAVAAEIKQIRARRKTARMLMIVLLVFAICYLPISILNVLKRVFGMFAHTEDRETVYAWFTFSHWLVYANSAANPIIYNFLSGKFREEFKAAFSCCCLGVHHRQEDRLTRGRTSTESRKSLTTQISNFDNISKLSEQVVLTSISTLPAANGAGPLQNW
Assay: Intracellular Ca2+ mobilization assay (FLIPR), antagonism of orexin-A
Type: cell-based
Conditions: CHO(dHFr−) cells stably expressing hOX2; orexin-A at EC80 as agonist; Kb=IC50/(1+[A]/EC50); read-out: Kb (μM) OX2R (human)
Protocol: R^7 and R^8 in scheme 5 are hydrogen, and the other substituents are as described above The compounds were investigated in accordance with the test given hereinafter. Intracellular Ca^2+ Mobilization Assay
The Chinese Hamster Ovary (dHFr−) mutant cell line stably expressing human orexin-1 (hOX1) or human orexin-2 (hOX2) receptors were maintained in Dulbecco's Modified Eagle Medium (1×) with GlutaMax™ 1, 4500 mg/L D-Glucose and Sodium Pyruvate (Catalog No. 31966-021, Invitrogen, Carlsbad, Calif.), 5% dialyzed fetal calf serum (Catalog No. 26400-044), 100 μg/ml penicillin and 100 μg/ml streptomycin. The cells were seeded at 5×10^4 cells/well in the poly-D-lysine treated, 96-well, black/clear-bottomed plates (Catalog No. BD356640, BD Biosciences, Palo Alto, Calif.). 24 h later, the cells were loaded for 1 h at 37° C. with 4 μM Flou-4 acetoxymethyl ester (Catalog No. F-14202, Molecular Probes, Eugene, Oreg.) in FLIPR buffer (1×HBSS, 20 mM HEPES, 2.5 mM Probenecid). Hanks' Balanced Salt Solution (HBSS) (10×) (catalog No. 14065-049) and HEPES (1M) (catalog No. 15630-056) were purchased from Invitrogen, Carlsbad, Calif. Probenecid (250 mM) (catalog No. P8761) was from Sigma, Buchs, Switzerland. The cells were washed five times with FLIPR buffer to remove excess dye and intracellular calcium mobilization, [Ca^2+]i were measured using a Fluorometric Imaging Plate Reader (FLIPR-96, Molecular Devices, Menlo Park, Calif.) as described previously (Malherbe et al., Mol. Pharmacol., 64, 823-832, 2003). Orexin A (catalog No. 1455, Toris Cookson Ltd, Bristol, UK) was used as agonist. Orexin A ([…] stock solution in DMSO) was diluted in FLIPR buffer+0.1% BSA. The EC50 and EC80 values of orexin-A were measured daily from standard agonist concentration-response curves in CHO(dHFr−)-OX1R and —OX2R cell lines. All compounds were dissolved in 100% DMSO. Inhibition curves were determined by addition of 11 concentrations (0.0001-10 μM) of inhibitory compounds and using EC80 value of orexin-A as agonist (a concentration which gave 80% of max agonist response, determined daily). The antagonists were applied 25 min (incubation at 37° C.) before the application of the agonist. Responses were measured as peak increase in fluorescence minus basal, normalized to the maximal stimulatory effect induced by EC80 value of orexin-A or orexin-B. Inhibition curves were fitted according to the Hill equation: y=100/(1+(x/IC50)^nH), where nH=slope factor using Excel-fit 4 software (Microsoft). Kb values were calculated according to the following equation Kb=IC50/(1+[A]/EC50) where A is the concentration of agonist added which is very close to agonist EC80 value, and IC50 and EC50 values were derived from the antagonist inhibition and orexin-A or B agonist curves, respectively.

Kb [µM]	Structure (SMILES)
0.0086	CNC(=O)[C@H](N[C@@H](CCc1ccc(Cl)cc1)c1ccc(OC)c(OC)c1)c1ccc(Cl)cc1 (racemic) [Example 319, (R,S)-2-(4-Chloro-phenyl)-2-[(S,R)-3-(4-chloro-phenyl)-1-(3,4-dimethoxy-phenyl)-propylamino]-N-methyl-acetamide]
0.0028	CNC(=O)[C@H](N[C@@H](CCc1cccc(C(F)(F)F)c1)c1ccc(OC)c(OC)c1)c1ccccc1 (racemic) [Example 321, (R,S)-2-[(S,R)-1-(3,4-Dimethoxy-phenyl)-3-(3-trifluoromethyl-phenyl)-propylamino]-N-methyl-2-phenyl-acetamide]
0.0017	CNC(=O)[C@H](NC(CCc1ccc(C(F)(F)F)cc1)c1ccc(OC)c(OC)c1)c1ccccc1 (single isomer, unassigned) [Example 6, (R)-2-[(S or R)-1-(3,4-Dimethoxy-phenyl)-3-(4-trifluoromethyl-phenyl)-propylamino]-N-methyl-2-phenyl-acetamide]
0.0142	CNC(=O)[C@H](NC(CCc1ccc(C(F)(F)F)cc1)c1ccc(OC)c(OC)c1)c1ccccc1 (single isomer, unassigned) [Example 7, (R)-2-[(S or R)-1-(3,4-Dimethoxy-phenyl)-3-(4-trifluoromethyl-phenyl)-propylamino]-N-methyl-2-phenyl-acetamide]
0.0026	CCNC(=O)[C@H](NC(CCc1ccc(C(F)(F)F)cc1)c1ccc(OC)c(OC)c1)c1ccccc1 (single isomer, unassigned) [Example 13, (R)-2-[(R or S)-1-(3,4-Dimethoxy-phenyl)-3-(4-trifluoromethyl-phenyl)-propylamino]-N-ethyl-2-phenyl-acetamide]
0.0014	CNC(=O)[C@H](N[C@@H](CCc1ccc(Cl)cc1)c1ccc(OC)c(OC)c1)c1ccccc1 (single isomer, unassigned) [Example 140]
0.0051	CNC(=O)[C@H](N[C@@H](CCc1ccc(C(F)(F)F)cc1)c1ccc(OC)c(OC)c1)c1ccc(Cl)cc1 [Example 94, (R)-2-(4-Chloro-phenyl)-2-[(S)-1-(3,4-dimethoxy-phenyl)-3-(4-trifluoromethyl-phenyl)-propylamino]-N-methyl-acetamide]
0.0086	CNC(=O)[C@H](N[C@@H](CCc1ccc(C(F)(F)F)cc1)c1ccc(OC)c(OC)c1)c1ccc(F)cc1 [Example 95, (R)-2-[(S)-1-(3,4-Dimethoxy-phenyl)-3-(4-trifluoromethyl-phenyl)-propylamino]-2-(4-fluoro-phenyl)-N-methyl-acetamide]

Further lines, the compound ahead of its results:

Structure (SMILES)	Kb [µM]
CNC(=O)[C@H](N[C@@H](CCc1ccc(C(F)(F)F)cc1)c1cc(C)on1)c1ccccc1 (racemic) [Example 302, (S,R)—N-Methyl-2-[(R,S)-1-(5-methyl-isoxazol-3-yl)-3-(4-trifluoromethyl-phenyl)-propylamino]-2-phenyl-acetamide]	0.0161
CNC(=O)[C@H](N[C@@H](CCc1ccc(Cl)cn1)c1ccc(OC(F)F)c(OC(F)F)c1)c1ccccc1 (racemic) [Example 306, (S,R)-2-[(R,S)-1-(3,4-Bis-difluoromethoxy-phenyl)-3-(5-chloro-pyridin-2-yl)-propylamino]-N-methyl-2-phenyl-acetamide]	0.0063
CNC(=O)[C@H](N[C@H](CCc1cccc(C(F)(F)F)c1)c1ccc(OC)c(OC)c1)c1ccccc1 (racemic) [Example 320, (R,S)-2-[(R,S)-1-(3,4-Dimethoxy-phenyl)-3-(3-trifluoromethyl-phenyl)-propylamino]-N-methyl-2-phenyl-acetamide]	0.0021
CNC(=O)[C@H](N[C@@H](CCc1ccc(C(F)(F)F)nc1)c1ccc(F)c(C)c1)c1ccc(C)cc1 (racemic) [Example 334, (R,S)-2-[(S,R)-1-(4-Fluoro-3-methyl-phenyl)-3-(6-trifluoromethyl-pyridin-3-yl)-propylamino]-N-methyl-2-p-tolyl-acetamide]	0.01
CCNC(=O)[C@H](N[C@@H](CCc1ccc(C(F)(F)F)nc1)c1ccc(F)c(C)c1)c1ccccc1 (racemic) [Example 340, (R,S)—N-Ethyl-2-[(S,R)-1-(4-fluoro-3-methyl-phenyl)-3-(6-trifluoromethyl-pyridin-3-yl)-propylamino]-2-phenyl-acetamide]	0.0178
CNC(=O)[C@H](N[C@@H](CCc1ccc(C(F)(F)F)nc1)c1ccc(F)c(C)c1)c1ccc(OC)cc1 (racemic) [Example 350, (R,S)-2-[(S,R)-1-(4-fluoro-3-methyl-phenyl)-3-(6-trifluoromethyl-pyridin-3-yl)-propylamino]-2-(4-methoxy-phenyl)-N-methyl-acetamide]	0.0164
Cc1cc([C@H](CCc2ccc(C(F)(F)F)nc2)N[C@@H](C(=O)NCCO)c2ccccc2)ccc1F (racemic) [Example 356, (R,S)-2-[(S,R)-1-(4-Fluoro-3-methyl-phenyl)-3-(6-trifluoromethyl-pyridin-3-yl)-propylamino]-N-(2-hydroxy-ethyl)-2-phenyl-acetamide]	0.0044
CNC(=O)[C@H](N[C@@H](CCc1ccc(C)cc1)c1ccc(F)c(C)c1)c1ccccc1 (racemic) [Example 365, (R,S)-2-[(S,R)-1-(4-Fluoro-3-methyl-phenyl)-3-p-tolyl-propylamino]-N-methyl-2-phenyl-acetamide]	0.0124
COc1ccc(C(CCc2ccc(C(F)(F)F)cc2)N[C@@H](C(=O)NCC2CC2)c2ccccc2)cc1OC (single isomer, unassigned) [Example 16, (R)-N-Cyclopropylmethyl-2-[(R or S)-1-(3,4-dimethoxy-phenyl)-3-(4-trifluoromethyl-phenyl)-propylamino]-2-phenyl-acetamide]	0.0142
CNC(=O)[C@@](C)(N[C@@H](CCc1ccc(C(F)(F)F)cc1)c1ccc(OC)c(OC)c1)c1ccccc1 (single isomer, unassigned) [Example 29]	0.0184
CNC(=O)[C@H](N[C@@H](CCc1ccc(F)cc1)c1ccc(OC)c(OC)c1)c1ccccc1 (single isomer, unassigned) [Example 144]	0.0097
CNC(=O)[C@H](N[C@@H](CCc1ccccc1)c1ccc(OC)c(OC)c1)c1ccccc1 (single isomer, unassigned) [Example 314]	0.0067
CNC(=O)C(NC(CCc1ccc(C(F)(F)F)cc1)c1sc(C)nc1C)c1ccc(F)cc1 (stereo not drawn) [Example 80, 2-[1-(2,4-Dimethyl-thiazol-5-yl)-3-(4-trifluoromethyl-phenyl)-propylamino]-2-(4-fluoro-phenyl)-N-methyl-acetamide]	0.0192
CNC(=O)C(NC(CCc1ccc(C(F)(F)F)cc1)c1cc(C(C)C)no1)c1ccccc1 (stereo not drawn) [Example 92, 2-[1-(3-Isopropyl-isoxazol-5-yl)-3-(4-trifluoromethyl-phenyl)-propylamino]-N-methyl-2-phenyl-acetamide]	0.007
CNC(=O)C(NC(CCc1ccc(C(F)(F)F)cc1)c1sc(C)nc1C)c1ccccc1 (stereo not drawn) [Example 93, 2-[1-(2,4-Dimethyl-thiazol-5-yl)-3-(4-trifluoromethyl-phenyl)-propylamino]-N-methyl-2-phenyl-acetamide]	0.017
CNC(=O)[C@H](N[C@@H](CCc1ccc(Cl)cc1)c1ccc2c(c1)CCO2)c1ccccc1 [Example 96, (R)-2-[(S)-3-(4-Chloro-phenyl)-1-(2,3-dihydro-benzofuran-5-yl)-propylamino]-N-methyl-2-phenyl-acetamide]	0.0018
